Laboratory results taken from PubChem BioAssay (NCI).
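1) Cells in 96-well plates. 2) Compound, 48 h, 5 concentrations. 3) Linear interpolation between surrounding doses. 4) Unreached endpoint = highest concentration. Abbreviation: GI50, concentration required for 50% inhibition of growth. TGI denotes the concentration required for complete inhibition of growth.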

Experiments:
Experiment in all cases: NCI tumour cell line growth inhibition, 48 h
HCT-15 colon = tested on: HCT-15 colon
UACC-257 melanoma = tested on: UACC-257 melanoma
HT29 colon = tested on: HT29 colon
SN12C renal = tested on: SN12C renal
MALME-3M melanoma = tested on: MALME-3M melanoma
786-0 renal = tested on: 786-0 renal
KM12 colon = tested on: KM12 colon
SR leukemia = tested on: SR leukemia
SK-MEL-5 melanoma = tested on: SK-MEL-5 melanoma
HS 578T breast = tested on: HS 578T breast
UO-31 renal = tested on: UO-31 renal
CCRF-CEM leukemia = tested on: CCRF-CEM leukemia
SF-539 CNS = tested on: SF-539 CNS
COLO 205 colon = tested on: COLO 205 colon
MDA-MB-435 = tested on: MDA-MB-435
CAKI-1 renal = tested on: CAKI-1 renal
SF-295 CNS = tested on: SF-295 CNS
NCI-H23 lung = tested on: NCI-H23 lung
HOP-62 NSCLC = tested on: HOP-62 NSCLC
SK-MEL-28 melanoma = tested on: SK-MEL-28 melanoma
PC-3 prostate = tested on: PC-3 prostate
HCC-2998 colon = tested on: HCC-2998 colon
OVCAR-3 ovarian = tested on: OVCAR-3 ovarian
TK-10 renal = tested on: TK-10 renal
LOX IMVI melanoma = tested on: LOX IMVI melanoma
MCF7 breast = tested on: MCF7 breast
A549 NSCLC = tested on: A549 NSCLC
HCT-116 colon = tested on: HCT-116 colon
BT-549 breast = tested on: BT-549 breast
RPMI-8226 leukemia = tested on: RPMI-8226 leukemia
T-47D breast = tested on: T-47D breast
K-562 leukemia = tested on: K-562 leukemia
ACHN renal = tested on: ACHN renal
DU-145 prostate = tested on: DU-145 prostate
IGROV1 ovarian = tested on: IGROV1 ovarian
OVCAR-8 ovarian = tested on: OVCAR-8 ovarian
OVCAR-5 ovarian = tested on: OVCAR-5 ovarian
SNB-19 CNS = tested on: SNB-19 CNS
HL-60(TB) leukemia = tested on: HL-60(TB) leukemia
RXF 393 renal = tested on: RXF 393 renal
M14 melanoma = tested on: M14 melanoma
U251 CNS = tested on: U251 CNS
MOLT-4 leukemia = tested on: MOLT-4 leukemia
A498 renal = tested on: A498 renal
MDA-MB-231 breast = tested on: MDA-MB-231 breast
NCI-H522 lung = tested on: NCI-H522 lung
UACC-62 melanoma = tested on: UACC-62 melanoma
SK-MEL-2 melanoma = tested on: SK-MEL-2 melanoma
HOP-92 NSCLC = tested on: HOP-92 NSCLC
SW-620 colon = tested on: SW-620 colon
EKVX NSCLC = tested on: EKVX NSCLC
SK-OV-3 ovarian = tested on: SK-OV-3 ovarian
SF-268 CNS = tested on: SF-268 CNS
NCI/ADR-RES ovarian = tested on: NCI/ADR-RES ovarian
NCI-H460 lung = tested on: NCI-H460 lung
SNB-75 CNS = tested on: SNB-75 CNS
OVCAR-4 ovarian = tested on: OVCAR-4 ovarian
NCI-H226 lung = tested on: NCI-H226 lung

## C#C[C@]1(O)CC[C@H]2[C@@H]3CC=C4c5sc(Nc6cccc(Cl)n6)nc5CC[C@]4(C)[C@H]3CC[C@@]21C
HCT-15 colon
  GI50: 0.672 µM
  TGI: 2.44 µM
UACC-257 melanoma
  GI50: 0.491 µM
  TGI: 1.82 µM
HT29 colon
  GI50: 1.43 µM
  TGI: 3.6 µM
SN12C renal
  GI50: 1.6 µM
  TGI: 3.38 µM
MALME-3M melanoma
  GI50: 1.06 µM
  TGI: 2.62 µM
786-0 renal
  GI50: 0.226 µM
  TGI: 0.61 µM
KM12 colon
  GI50: 1.25 µM
  TGI: 3.15 µM
SR leukemia
  GI50: 0.273 µM
  TGI: 1.02 µM
SK-MEL-5 melanoma
  GI50: 1.65 µM
  TGI: 3.12 µM
HS 578T breast
  GI50: 0.338 µM
  TGI: 1.55 µM
UO-31 renal
  GI50: 0.576 µM
  TGI: 1.87 µM
CCRF-CEM leukemia
  GI50: 0.43 µM
  TGI: > 21.1 µM
SF-539 CNS
  GI50: 0.204 µM
  TGI: 0.636 µM
COLO 205 colon
  GI50: 1.69 µM
  TGI: 3.4 µM
MDA-MB-435
  GI50: 1.01 µM
  TGI: 2.73 µM
CAKI-1 renal
  GI50: 0.819 µM
  TGI: 2.45 µM
SF-295 CNS
  GI50: 0.205 µM
  TGI: 0.529 µM
NCI-H23 lung
  GI50: 1.61 µM
  TGI: 4.77 µM
HOP-62 NSCLC
  GI50: 0.796 µM
  TGI: 2.23 µM
SK-MEL-28 melanoma
  GI50: 0.226 µM
  TGI: 0.597 µM
PC-3 prostate
  GI50: 0.46 µM
  TGI: 3.11 µM
HCC-2998 colon
  GI50: 1.88 µM
  TGI: 4.1 µM
OVCAR-3 ovarian
  GI50: 1.45 µM
  TGI: 3.13 µM
TK-10 renal
  GI50: 1.79 µM
  TGI: 4.06 µM
LOX IMVI melanoma
  GI50: 0.705 µM
  TGI: 1.98 µM
MCF7 breast
  GI50: 0.55 µM
  TGI: 2.4 µM
A549 NSCLC
  GI50: 1.2 µM
  TGI: 3.55 µM
HCT-116 colon
  GI50: 0.565 µM
  TGI: 1.92 µM
BT-549 breast
  GI50: 0.903 µM
  TGI: 2.36 µM
RPMI-8226 leukemia
  GI50: 0.208 µM
  TGI: 0.618 µM
T-47D breast
  GI50: 1.84 µM
  TGI: 5.31 µM
K-562 leukemia
  GI50: 0.327 µM
  TGI: 1.71 µM
ACHN renal
  GI50: 0.856 µM
  TGI: 2.93 µM
DU-145 prostate
  GI50: 2.17 µM
  TGI: 9.2 µM
IGROV1 ovarian
  GI50: 1.61 µM
  TGI: 4.47 µM
OVCAR-8 ovarian
  GI50: 1.46 µM
  TGI: 3.63 µM
OVCAR-5 ovarian
  GI50: 1.56 µM
  TGI: 3.35 µM
SNB-19 CNS
  GI50: 1.17 µM
  TGI: 2.82 µM
HL-60(TB) leukemia
  GI50: 0.335 µM
  TGI: 1.57 µM
RXF 393 renal
  GI50: 0.122 µM
  TGI: 0.349 µM
M14 melanoma
  GI50: 0.491 µM
  TGI: 1.78 µM
U251 CNS
  GI50: 0.428 µM
  TGI: 2.05 µM
MOLT-4 leukemia
  GI50: 0.301 µM
  TGI: 1.17 µM
A498 renal
  GI50: 0.897 µM
  TGI: 2.25 µM
MDA-MB-231 breast
  GI50: 1.06 µM
  TGI: 2.69 µM
NCI-H522 lung
  GI50: 1.71 µM
  TGI: 3.61 µM
UACC-62 melanoma
  GI50: 0.389 µM
  TGI: 1.5 µM
SK-MEL-2 melanoma
  GI50: 1.19 µM
  TGI: 3.34 µM
HOP-92 NSCLC
  GI50: 1.2 µM
  TGI: 2.66 µM
SW-620 colon
  GI50: 1.19 µM
  TGI: 2.57 µM
EKVX NSCLC
  GI50: 1.29 µM
  TGI: 6.74 µM
SK-OV-3 ovarian
  GI50: 0.867 µM
  TGI: 2.71 µM
SF-268 CNS
  GI50: 1.54 µM
  TGI: 4.65 µM
NCI/ADR-RES ovarian
  GI50: 1.82 µM
  TGI: 5.57 µM
NCI-H460 lung
  GI50: 0.672 µM
  TGI: 1.93 µM
SNB-75 CNS
  GI50: 0.815 µM
  TGI: 6.54 µM
OVCAR-4 ovarian
  GI50: 2.11 µM
  TGI: 8.6 µM
NCI-H226 lung
  GI50: 1.6 µM
  TGI: 4.13 µM
